The term IC50 denotes the concentration at which inhibition is half-maximal. What is called EC50 is the midpoint of the concentration-response curve.

From US8415351B2 (priority 2007, dated 2013) come the findings set out here.

The target of assay [1] is T1, HCV polymerase 1A (Δ21 NS5B, H77) (Hepatitis C virus genotype 1a, UniProt P27958).
T1 construct: 20 to 50 nM Δ21 NS5B
The experiment in a line: biochemical. The settings on record: IC50 1a. The gist of the method: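 Radiometric assay with Δ21 NS5B (H77): 20 μM CTP, 20 μM ATP, 1 μM ^3H-UTP, 5 nM template RNA, 2–4 h at room temperature. RNA precipitated with spermine, filter-captured and counted. IC50 from non-linear fit of retained cpm vs inhibitor concentration (tight-binding equation).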

Assay [2] has as its target T2, HCV polymerase 1B (Δ21 NS5B, BK) (Hepatitis C virus genotype 1b, UniProt P26663).
T2 construct: 20 to 50 nM Δ21 NS5B
The experiment in a line: biochemical. The procedure, abridged: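 Δ21 NS5B (genotype 1b, BK […]) preincubated 15 min RT with inhibitor, 2 mM MnCl2, pH 7.4, 60–125 μM GTP; started with 20 μM CTP/ATP, 1 μM 3H-UTP, 5 nM template RNA, run 2–4 h RT. Spermine-precipitated RNA filter-captured, scintillation counted; IC50 from tight-binding (Morrison) fit.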

The subject of assay [3] is genotype 1a-H77 subgenomic replicon cell line. The experiment in a line: microbe, parasite or virus in culture. The format is cell-based, HCV. The settings on record: Hepatitis C virus, read-out: EC50 1a.
Assay [4] deals with genotype 1b-Con1 subgenomic replicon cell line. The experiment in a line: microbe, parasite or virus in culture. In kind it is cell-based, HCV. The settings on record: Hepatitis C virus, read-out: EC50 1b.

T2 sequence (P26663 2420-2989, stated change not applied): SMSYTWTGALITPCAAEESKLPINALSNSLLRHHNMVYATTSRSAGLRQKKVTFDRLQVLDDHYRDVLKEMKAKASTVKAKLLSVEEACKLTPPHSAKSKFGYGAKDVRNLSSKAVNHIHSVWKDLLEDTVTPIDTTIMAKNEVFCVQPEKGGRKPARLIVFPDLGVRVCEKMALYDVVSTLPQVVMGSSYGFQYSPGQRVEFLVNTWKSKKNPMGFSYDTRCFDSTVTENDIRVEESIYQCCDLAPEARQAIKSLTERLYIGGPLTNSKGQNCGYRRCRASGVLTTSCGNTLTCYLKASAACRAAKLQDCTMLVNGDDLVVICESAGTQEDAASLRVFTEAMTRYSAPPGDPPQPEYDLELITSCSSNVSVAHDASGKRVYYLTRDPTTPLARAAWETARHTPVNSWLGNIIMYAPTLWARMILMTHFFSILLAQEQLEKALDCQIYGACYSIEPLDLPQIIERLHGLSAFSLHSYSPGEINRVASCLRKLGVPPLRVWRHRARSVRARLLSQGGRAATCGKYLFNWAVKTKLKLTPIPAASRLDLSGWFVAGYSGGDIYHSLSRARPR
T1 sequence (P27958 2421-2990, stated change not applied): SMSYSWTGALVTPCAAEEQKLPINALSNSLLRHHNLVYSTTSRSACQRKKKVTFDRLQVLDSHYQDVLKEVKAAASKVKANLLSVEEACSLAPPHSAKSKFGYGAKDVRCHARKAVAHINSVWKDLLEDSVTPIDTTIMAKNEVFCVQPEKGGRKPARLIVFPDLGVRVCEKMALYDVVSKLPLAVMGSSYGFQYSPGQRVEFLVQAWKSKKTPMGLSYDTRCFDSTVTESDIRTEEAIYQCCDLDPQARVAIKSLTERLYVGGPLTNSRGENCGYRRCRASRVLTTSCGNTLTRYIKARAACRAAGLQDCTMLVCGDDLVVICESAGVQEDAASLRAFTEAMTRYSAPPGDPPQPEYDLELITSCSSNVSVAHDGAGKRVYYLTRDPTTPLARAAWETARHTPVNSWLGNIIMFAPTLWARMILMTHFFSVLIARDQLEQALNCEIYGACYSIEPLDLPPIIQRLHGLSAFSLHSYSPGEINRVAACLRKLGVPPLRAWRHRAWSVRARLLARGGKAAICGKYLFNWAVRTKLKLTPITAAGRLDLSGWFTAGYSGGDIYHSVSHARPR

Regarding `COc1c(C(=O)Nc2ccc(CC(=O)O)cc2)cc(N2CCC(=O)NC2=O)cc1C(C)(C)C` [IA-L3-1.30, 2-(4-(3-tert-butyl-5-(2,4-dioxotetrahydropyrimidin-1(2H)-yl)-2-methoxybenzamido)phenyl)-acetic acid], the figures for the IC50 in assay [1] and in assay [2] were above 1 µM and 0.1 to 1 µM, respectively. In addition, the EC50 in assay [3] and in assay [4] was above 1 µM each time.
As for `COc1cc(NS(C)(=O)=O)ccc1C(=O)Nc1cc(N2CCC(=O)NC2=O)cc(C(C)(C)C)c1OC` [IA-L4-1.11, N-(3-tert-butyl-5-(2,4-dioxotetrahydropyrimidin-1(2H)-yl)-2-methoxyphenyl)-2-methoxy-4-(methylsulfonamido)benzamide], the values for the IC50 in assay [1] and in assay [2] were below 0.01 µM and 0.01 to 0.1 µM, respectively. Moreover, the results for the EC50 in assay [3] and in assay [4] were 0.1 to 1 µM and 0.01 to 0.1 µM, respectively.
For `COc1c(-c2ccsc2)cc(-n2ccc(=O)[nH]c2=O)cc1-c1ccc2c(c1)CC=C2CNS(C)(=O)=O` [IB-L0-2.62, N-((6-(5-(2,4-dioxo-3,4-dihydropyrimidin-1(2H)-yl)-2-methoxy-3-(thiophen-3-yl)phenyl)-1H-inden-3-yl)methyl)methanesulfonamide], the IC50 in assay [1] and in assay [2] was 0.01 to 0.1 µM throughout. The EC50 in assay [3] was in the range of 0.1 to 1 µM; in assay [4] it was 0.01 to 0.1 µM.
Take `CCCC(=O)OCN(c1ccc(NC(=O)c2cc(N3CCC(=O)NC3=O)cc(C(C)(C)C)c2OC)cc1)S(C)(=O)=O` [IA-L3-1.123, (N-(4-(3-tert-butyl-5-(2,4-dioxotetrahydropyrimidin-1(2H)-yl)-2-methoxybenzamido)phenyl)methylsulfonamido)methyl butyrate]: the IC50 in assay [1] and in assay [2] was above 1 µM each time. Further, the EC50 in assay [3] fell in the range of 0.1 to 1 µM; in assay [4], 0.01 to 0.1 µM.
Consider `COc1c(-c2ccc(/C=N/NS(C)(=O)=O)c(F)c2)cc(N2CCC(=O)NC2=O)cc1C(C)(C)C` [IA-L0-1.4, (E)-N′-((3′-tert-butyl-5′-(2,4-dioxotetrahydropyrimidin-1(2H)-yl)-3-fluoro-2′-methoxybiphenyl-4-yl)methylene)methanesulfonohydrazide], for which the IC50 in assay [1] and in assay [2] was 0.01 to 0.1 µM throughout. The EC50 in assay [3] lay within 0.1 to 1 µM; in assay [4], 0.01 to 0.1 µM.
As for `COc1c(C#Cc2ccc(NS(C)(=O)=O)c3ccccc23)cc(-n2ccc(=O)[nH]c2=O)cc1C(C)(C)C` [IB-L2-2.1, N-(4-((3-tert-butyl-5-(2,4-dioxo-3,4-dihydropyrimidin-1(2H)-yl)-2-methoxyphenyl)ethynyl)-naphthalen-1-yl)methanesulfonamide], the IC50 in assay [1] and in assay [2] was 0.01 to 0.1 µM each time. Besides, the EC50 in assay [3] and in assay [4] was 0.1 to 1 µM each time.
Regarding `CC(C)(C)c1cc(N2CCC(=O)NC2=O)cc(C(=O)Nc2ccc(NS(C)(=O)=O)cc2)c1O` [IA-L3-1.6, 3-tert-butyl-5-(2,4-dioxotetrahydropyrimidin-1(2H)-yl)-2-hydroxy-N-(4-(methylsulfonamido)phenyl)benzamide], the results for the IC50 in assay [1] and in assay [2] were 0.01 to 0.1 µM and below 0.01 µM, respectively. Besides, the figures for the EC50 in assay [3] and in assay [4] were 0.1 to 1 µM and 0.01 to 0.1 µM, respectively.
In the case of `COc1c(-c2ccc3c(c2)CC[C@H]3C(C)(C)NS(C)(=O)=O)cc(-n2ccc(=O)[nH]c2=O)cc1C(C)(C)C` (single isomer, unassigned) [IB-L0-2.37], the IC50 in assay [1] and in assay [2] was 0.1 to 1 µM each time. Further, the EC50 is above 1 µM in assay [3] and 0.1 to 1 µM in assay [4].
As for `COc1c(-c2ccc(/C=N/NS(C)(=O)=O)cc2)cc(N2CCC(=O)NC2=O)cc1C(C)(C)C` [IA-L0-1.1, (E)-N′-((3′-tert-butyl-5′-(2,4-dioxotetrahydropyrimidin-1(2H)-yl)-2′-methoxybiphenyl-4-yl)methylene)methanesulfonohydrazide], the IC50 was below 0.01 µM in assay [1] and 0.01 to 0.1 µM in assay [2]. The EC50 was 0.1 to 1 µM in assay [3] and below 0.01 µM in assay [4].
